From patent US8685720B2, “Engineered cellular pathways for programmed autoregulation of differentiation” (The Trustees of Princeton University, priority 2006, dated 2014) come the findings set out here.

“Also recorded” adds a separate entry of the source.

The subject of the assay is mammalian version of LuxR in 293FT cells. As to the kind of experiment: 30C6HSL detection by mammalian receiver cells expressing chimeric LuxR-activator. Type of assay: cell-based. As to conditions: P65-LuxR fusion, synthetic lux promoter, exogenous 30C6HSL. The text has this: FIG. 2: (a) 30C6HSL synthesis by mammalian 293FT cells. Supernatant from the cells' growth media was collected and filter sterilized. Histograms show the fluorescence intensities of bacterial cells sensitive to 30C6HSL grown in the filtered supernatant, expressing green fluorescent protein due to 30C6HSL from the mammalian cells. (b) 30C6HSL detection by mammalian receiver cells. […] (c) Controlled stem cell differentiation with genetically inducible systems. Three different lentiviral genetic constructs were built, enabling exogenous chemical induction into myoblasts, adipocytes, or maintenance of stem cell properties. […] In addition, the marker protein for myoblasts, dystrophin, was expressed from these cells (data not shown). […] In a separate experiment, induced expression of Nanog supplanted the need for a growth factor usually required to maintain the overall character of mES cells.
The 30C6HSL detection pathway consists of a signal transducer that binds 30C6HSL and activates transcription of genes controlled by a synthetic lux promoter. The 30C6HSL signal transducer is a chimeric LuxR-activator protein created by the fusion of a P65 mammalian activation domain to a codon optimized mammalian version of a bacterial LuxR.

With `CCCC(=O)CC(=O)N[C@H]1CCOC1=O` [30C6HSL], the “response (EGFP expression) to the addition of 30C6HSL” value is “strong response; also recorded: express EGFP only upon induction with exogenous 30C6HSL”.
